Results from US20240358727A1, “MICROSCALE THERMOPHORESIS TO EVALUATE CHANNEL LIPID INTERACTIONS AND METHODS OF TREATING NAV CHANNELS RELATED DISEASES” (Northeastern University, priority 2023, published 2024).
Entries after “also recorded” stand apart in the source; their conditions may differ.

Assays:
[1] = target: T1, Nav1.5 channel currents (INa, ILATE) in M3q iPS-CMs (Homo sapiens, UniProt Q14524); experiment: Whole-cell patch-clamp of INa and ILATE in M3q-DREADD iPS-CMs activated with CNO; type: cell-based; settings: 100 nM CNO
T1 construct: host or cells: human iCell^2 iPS cardiomyocytes (transfected with M3q DREADD in A5; endogenous AT1 receptor in A7)
Protocol: Control is CNO application to cells with no M3q. Mean±SD % fluorescence change for 20 cells per group; an example photobleaching montage is inset. […] Leftwards shifts in each parameter are precluded by U73122 or by 200 μM diC8-PIP2 in the pipette but are not sensitive to staurosporine or BAPTA. The cells were perfused with an extracellular solution containing (in mM): 130 NaCl, 5 CsCl, 1.2 MgCl2, 1.5 CaCl2), 8 Glucose, 10 HEPES (pH7.4). […] nitrendipine was added to the recording solution to block Ca^2+ flux through Cav channels. Patch pipettes with a resistance of 2.5-4 MQ are filled with a solution containing (in mM): 60 CsCl, 80 CsF, 2 MgCl2, 10 EGTA, 5 Na2ATP, 5 HEPES (pH 7.4). Currents were low pass (Bessel) filtered at 9 kHz and digitized at 50 kHz and were collected from cells with a series resistance <15 MQ; this was compensated by 70%.
Results. Studies are designed to evaluate if hydrolysis of PIP2 modulates Nav1.5 channel currents in cardiomyocytes. To perform these experiments, we used human iPS cardiomyocytes (iCell^2 iPS-CMs) from Fuji-Film Cellular Dynamics. These iPS-CMs are a valuable model system for human cardiomyocytes that retain many of the key characteristics of the native cells. Here, we transfected the iPS-CMs to express the Gαq-coupled M3q Designer Receptors Exclusively Activated by Designer Drugs (DREADD) receptor. We use a magnetic transfection system from Oz Biosciences that we have previously employed with cardiomyocytes. First, we tested the efficacy of M3q to hydrolyze PIP2 in our model system. To accomplish this, we studied uncoupling of the PIP2 biosensor iRFP-PHPLCδ1 from the plasma membrane in response to chemogenic activation of M3q by 100 nM clozapine N-oxide (CNO, Tocris Biosciences).
These findings are consistent with our prior observations and the work using optogenetically activated PI-phosphatases to deplete PIP2 in HEK293 cells […] Xenopus laevis oocytes. […] Having established a time frame for PIP2 hydrolysis in our system, we used whole-cell patch-clamp to study INa in paired experiments, before and after chemogenic activation of M3q. Applying 100 nM CNO evoked a leftward shift in the current-voltage (I-V) relationship of INa such that peak INa shifted from −25 to −35 mV. At −35 mV, the peak current-density increased from −220±5 pA/pF to −266±4 pA/pF at −35 mV (n=8, P<0.001, paired Student's t-test). […] However, in contrast to our findings with Nav1.4, activating M3q signaling also left-shifted the steady state inactivation curve of Nav1.5 (V½SSI), from −81.4±2 to −89.7±2 mV (n=8, P<0.01, paired t-test; FIGS. 2C, 2D). These studies indicate that Nav1.5 channels are regulated by hydrolysis of PIP2 and that there are distinctions between PIP2 regulation of Nav1.5 and Nav1.4.
Next, we studied the effect of M3q-activation on ILATE by recording currents evoked by a 400 ms depolarizing pulse to −20 mV before and during receptor activation. The magnitude of ILATE represents the mean current 150-200 ms after peak INa and is expressed as a percentage of peak INa. […] The effects of M3q activation on V½ACT, V½SSI, and the development of ILATE were not affected by staurosporine (1 μM, 1-hour preincubation) or BAPTA (10 mM in the recording pipette), making a role for IP3 or DAG unlikely. […] Similar data were obtained for Nav1.5 expressed with Navβ1 and the M3q-DREADD receptor in HEK293T cells. This experiment validates that the findings are not restricted to a particular model system or cellular environment.
Measure modulation in INa and ILATE by endogenous Gαq signaling. Like native cardiomyocytes, human iPS-CMs express AT1 receptors. Here, the effects of Ang II (Tocris) on Nav1.5 channel function in iPS-CMs is tested using four whole-cell patch-clamp recording protocols. […]

IK1 (Kir2.1) = target: T2, IK1 (Kir2.1) (Rattus norvegicus, UniProt Q64273); settings: diC8-PI(4,5)P2 in recording pipette, concentration dependent; RVCMs, 2% O2; cited from earlier work
T2 construct: endogenous in cells; host or cells: rat ventricular cardiomyocytes (RVCMs)
T2 sequence (Q64273 1-427): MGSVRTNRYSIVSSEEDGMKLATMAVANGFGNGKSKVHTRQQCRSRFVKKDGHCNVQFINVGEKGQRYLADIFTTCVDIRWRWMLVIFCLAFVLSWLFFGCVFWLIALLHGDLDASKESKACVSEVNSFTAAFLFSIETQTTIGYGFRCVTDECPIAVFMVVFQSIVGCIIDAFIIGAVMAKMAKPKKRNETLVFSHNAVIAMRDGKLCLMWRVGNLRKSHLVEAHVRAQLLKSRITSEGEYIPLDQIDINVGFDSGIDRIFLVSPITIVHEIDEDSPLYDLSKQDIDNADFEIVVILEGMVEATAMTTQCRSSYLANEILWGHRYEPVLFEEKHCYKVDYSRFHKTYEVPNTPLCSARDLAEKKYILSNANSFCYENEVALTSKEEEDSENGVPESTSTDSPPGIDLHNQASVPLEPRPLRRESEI

T1 sequence (Q14524 whole entry): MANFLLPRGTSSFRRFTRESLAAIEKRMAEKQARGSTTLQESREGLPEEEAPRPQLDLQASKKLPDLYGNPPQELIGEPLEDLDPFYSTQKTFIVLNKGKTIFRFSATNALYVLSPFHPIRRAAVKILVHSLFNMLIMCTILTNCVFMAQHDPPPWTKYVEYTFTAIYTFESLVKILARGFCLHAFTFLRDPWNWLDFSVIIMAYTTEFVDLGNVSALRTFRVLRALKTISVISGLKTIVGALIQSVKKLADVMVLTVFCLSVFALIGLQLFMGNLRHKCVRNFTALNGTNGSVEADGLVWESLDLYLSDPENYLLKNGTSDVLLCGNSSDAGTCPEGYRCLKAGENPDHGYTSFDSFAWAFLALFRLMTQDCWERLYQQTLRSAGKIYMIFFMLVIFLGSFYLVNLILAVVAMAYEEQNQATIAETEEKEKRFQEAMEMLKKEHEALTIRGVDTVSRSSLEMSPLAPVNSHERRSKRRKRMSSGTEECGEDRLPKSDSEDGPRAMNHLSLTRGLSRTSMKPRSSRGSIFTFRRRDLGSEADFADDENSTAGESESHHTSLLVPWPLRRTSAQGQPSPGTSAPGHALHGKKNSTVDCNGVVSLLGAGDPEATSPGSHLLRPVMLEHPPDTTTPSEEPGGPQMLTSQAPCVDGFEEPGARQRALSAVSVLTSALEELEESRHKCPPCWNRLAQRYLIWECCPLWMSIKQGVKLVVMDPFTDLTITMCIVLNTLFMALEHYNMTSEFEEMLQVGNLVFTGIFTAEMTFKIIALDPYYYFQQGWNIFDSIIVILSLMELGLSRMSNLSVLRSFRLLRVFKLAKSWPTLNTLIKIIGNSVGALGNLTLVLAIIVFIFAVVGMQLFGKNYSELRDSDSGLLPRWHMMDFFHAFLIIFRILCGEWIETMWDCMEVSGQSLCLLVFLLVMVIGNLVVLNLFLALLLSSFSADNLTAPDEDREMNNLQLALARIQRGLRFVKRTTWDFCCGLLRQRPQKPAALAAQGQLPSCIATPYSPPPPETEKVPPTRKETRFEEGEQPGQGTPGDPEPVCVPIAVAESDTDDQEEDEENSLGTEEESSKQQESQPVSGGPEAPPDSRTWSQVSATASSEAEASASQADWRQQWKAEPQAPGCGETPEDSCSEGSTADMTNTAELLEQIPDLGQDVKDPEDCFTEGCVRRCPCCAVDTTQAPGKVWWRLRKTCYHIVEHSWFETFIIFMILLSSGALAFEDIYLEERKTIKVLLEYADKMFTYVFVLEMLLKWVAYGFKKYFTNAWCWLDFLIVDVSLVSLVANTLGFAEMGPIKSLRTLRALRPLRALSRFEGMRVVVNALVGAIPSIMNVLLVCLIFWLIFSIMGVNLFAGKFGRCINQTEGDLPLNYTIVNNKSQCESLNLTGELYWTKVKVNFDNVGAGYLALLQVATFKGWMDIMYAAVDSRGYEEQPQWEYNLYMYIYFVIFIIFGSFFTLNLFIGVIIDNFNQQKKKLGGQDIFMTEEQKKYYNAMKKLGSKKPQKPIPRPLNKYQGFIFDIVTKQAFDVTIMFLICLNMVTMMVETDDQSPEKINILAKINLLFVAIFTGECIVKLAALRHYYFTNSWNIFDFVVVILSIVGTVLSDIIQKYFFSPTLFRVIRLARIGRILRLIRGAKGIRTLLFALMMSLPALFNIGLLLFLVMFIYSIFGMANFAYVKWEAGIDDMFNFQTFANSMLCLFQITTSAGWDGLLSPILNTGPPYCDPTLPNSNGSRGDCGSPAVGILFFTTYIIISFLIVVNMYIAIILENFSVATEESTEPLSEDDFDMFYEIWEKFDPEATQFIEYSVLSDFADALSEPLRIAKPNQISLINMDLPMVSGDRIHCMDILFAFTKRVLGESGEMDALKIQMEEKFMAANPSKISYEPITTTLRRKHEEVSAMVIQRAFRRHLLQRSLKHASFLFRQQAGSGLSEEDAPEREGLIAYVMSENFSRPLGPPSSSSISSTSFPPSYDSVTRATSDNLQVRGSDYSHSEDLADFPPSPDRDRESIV

CCCCCCCC(=O)OC[C@H](COP(=O)(O)O[C@@H]1[C@H](O)[C@H](O)[C@@H](OP(=O)(O)O)[C@H](OP(=O)(O)O)[C@H]1O)OC(=O)CCCCCCC [diC8-PIP2]
effect on CNO-evoked increase in ILATE ([1]; 200 μM diC8-PIP2 in pipette): precluded
effect on CNO-evoked leftwards shifts in V½ACT and V½SSI ([1]; 200 μM diC8-PIP2 in pipette): precluded
effect on CNO (M3q activation) effects on V½ACT, V½SSI and ILATE ([1]; staurosporine 1 μM 1-hour preincubation, BAPTA 10 mM in pipette, U73122 5 μM, diC8-PIP2 200 μM in pipette): blocked; also recorded: abolished
effect on hypoxic inhibition of IK1 (IK1 (Kir2.1)): opposed
